The source of these data is US8288399B2, “Medicine containing pyrimidine derivative” (BTG International Limited, priority 2001, dated 2012).

Common to all, as to format: cell-based
In assay [1] the test system is Mouse abdominal cavity macrophages. In words: Suppression of macrophage activation caused by LPS (control), nitrogen monoxide production (Griess). Conditions: LPS 500 pg/ml instead of Aβ, 72 hours, culture medium containing only mouse interferon γ, NO production, read-out: IC50 (μg/ml) LPS. How it is done:
(§1) Suppression of microglia activation caused by β-amyloid Mouse abdominal cavity macrophages were prepared as follows for use as a model for microglia. A mouse (C3H/He, N, male, 7-10 weeks old: Nippon SLC) was subjected to cervical vertebrae dislocation then sprayed with 70% ethanol, the skin of the abdomen was cut open leaving the muscularis, from 5 to 7 ml of PBS (phosphate buffered saline) were injected into the abdominal cavity using a 24 G injection needle, the back was squeezed firmly, then injection solution was drawn from the abdominal cavity using a 23 G injection needle. The cells in the collected solution were centrifugally sedimented (900 rpm, 5 minutes) and washed using PBS, then 8×10^4/well were inoculated onto a 96-well microplate in culture solution (DMEM (Sigma), 10% FBS (Gibco), 100 U/ml penicillin+100 μg/ml streptomycin (Sigma)) and cultured in a 5% CO2/95% air incubator at 37° C. The amount of nitrogen monoxide produced was taken as an indicator of macrophage activation. Specifically, the macrophages were incubated for 72 hours in the presence of 1) Aβ1-42 (20 μg/ml: Sigma), and 2) Aβ1-42 and the test compound, then 50 μl of Griess reagent (0.1% N-(1-naphthyl)ethylenediamine (Sigma), 1% sulphanilamide (Sigma), 3% H3PO4) were added to 50 μl of the supernatant, and the light absorbance at 570 nm was measured. It should be noted that this experiment was conducted in culture solution containing mouse interferon γ (250 U/ml: genzyme techne) and polymyxin B (10 μg/ml: Sigma). Also, the same operations were performed using zymosan A (140 ng/ml: Molecular Probes) or LPS (500 pg/ml: Sigma) instead of Aβ, as controls. For LPS, culture medium containing only mouse interferon γ was used.
(§2) The concentration when the absorbance in the presence of 2) Aβ and test compound was 50% of the absorbance when 1) only Aβ 1-42 was added was taken as IC50, and the activity of the compound was appraised in terms of this value.
(The Griess reaction detects nitrite, a stable product of nitric oxide.)

Assay [2] shares this test system. In words: Suppression of macrophage (microglia model) activation caused by β-amyloid, nitrogen monoxide production (Griess). Conditions: Aβ1-42 20 μg/ml, 72 hours, mouse interferon γ 250 U/ml and polymyxin B 10 μg/ml, NO production, absorbance at 570 nm. How it is done:
as §1, §2

The test system is the same in assay [3]. Briefly: Suppression of macrophage activation caused by zymosan A (control), nitrogen monoxide production (Griess). Conditions: zymosan A 140 ng/ml instead of Aβ, 72 hours, mouse interferon γ and polymyxin B, NO production, read-out: IC50 (μg/ml) zymosan A. The protocol: as §1, §2

In brackets after ≈: the same amount, converted by molar mass.

Consider `Cc1nc2ncnn2c2c1ccn2Cc1ccccc1Cl` [Compound G], for which the results for the IC50 in assay [1], in assay [2] and in assay [3] were > 5 µg/mL, 3.8 µg/mL (≈ 12.8 µM) and > 5 µg/mL, respectively.
Consider `Cc1nc2ncnn2c2c1CCN2Cc1ccccc1` [Compound I], for which the IC50 in assay [1] is > 5 µg/mL; in assay [2] it was 4.3 µg/mL (≈ 16.2 µM); in assay [3], > 5 µg/mL.
With `Cc1nc2ncnn2c2c1CC(C)N2Cc1ccccc1Cl` (stereo not drawn) [Compound F], the IC50 in assay [1] is > 5 µg/mL; in assay [2], 3.6 µg/mL (≈ 11.5 µM); in assay [3] it was > 5 µg/mL.
As for `Cc1nc2ncnn2c2c1CCN2C(C)(C)c1ccccc1` [Compound K], the IC50 in assay [1] was > 5 µg/mL; in assay [2], 5 µg/mL (≈ 17 µM); in assay [3], > 5 µg/mL.
Take `Cc1nc2ncnn2c2c1CCN2C(C)c1ccccc1` (stereo not drawn) [Compound C]: the IC50 in assay [1] was > 5 µg/mL; in assay [2] it was 0.4 µg/mL (≈ 1.43 µM); in assay [3] it was > 5 µg/mL.
Turning to `Cc1nc2ccnn2c2c1CCN2Cc1ccccc1` [Compound H], the IC50 was > 5 µg/mL in assay [1], 4 µg/mL (≈ 15.1 µM) in assay [2] and > 5 µg/mL in assay [3].
Turning to `c1ccc(CCN2CCc3c(C4CC4)nc4ncnn4c32)cc1` [Compound A], the values for the IC50 in assay [1], in assay [2] and in assay [3] were > 5 µg/mL, 0.4 µg/mL (≈ 1.31 µM) and > 5 µg/mL, respectively.
With `Cc1nc2ncnn2c2c1CCN2Cc1ccccc1Cl` [Compound J], the IC50 in assay [1] was > 5 µg/mL; in assay [2] it was 5 µg/mL (≈ 16.7 µM); in assay [3], > 5 µg/mL.
Consider `Cc1nc2ncnn2c2c1CCN2Cc1ccccc1F` [Compound E], for which the IC50 was > 5 µg/mL in assay [1], 3.2 µg/mL (≈ 11.3 µM) in assay [2] and > 5 µg/mL in assay [3].
Regarding `Cc1nc2ncnn2c2c1CC(C)N2Cc1ccccc1F` (stereo not drawn) [Compound D], the IC50 in assay [1] was > 5 µg/mL; in assay [2], 2.3 µg/mL (≈ 7.74 µM); in assay [3] it was > 5 µg/mL.
Consider `Cc1nc2ncnn2c2c1CCN2CCc1ccccc1` [Compound B], for which the results for the IC50 in assay [1], in assay [2] and in assay [3] were > 5 µg/mL, 0.5 µg/mL (≈ 1.79 µM) and > 5 µg/mL, respectively.
